Where two headings read alike, the source gives them in different places.
Columns and labels:
[1] = test system: Key Grass and Sedge Weeds as well as Grass Crops; test: Post-emergent Test II herbicidal activity (Table 6); type: in vivo; settings: post-emergence, 336 h; for pest or weed control at 70 g/ha: application rate 70 g ai/ha; for pest or weed control at 140 g/ha: application rate 140 g ai/ha
Outline: (§1)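 Visual injury ratings (0 = no injury, 100 = complete kill) were taken 14 d after treatment, relative to untreated plants. Seedlings at the first–second true leaf stage received overhead spray at 187 L/ha; the highest rate was serially diluted to ½×, ¼×, ⅛× and 1/16×.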

[2] = test system: Key Broadleaf Weed and Crop Species; test: Post-emergent Test II herbicidal activity (Table 5); type: in vivo; settings: post-emergence, 336 h, post-emergent, 14 days after application; for pest or weed control at 70 g/ha: 70 g ai/ha; for pest or weed control at 140 g/ha: 140 g ai/ha
Outline: as §1

[3] = CYPES: yellow nutsedge (Cyperus esculentus), read-out: Visual Growth Reduction (%) 14 Days After Application, CYPES
[4] = DIGSA: crabgrass (Digitaria sanguinalis), read-out: Visual Growth Reduction (%) 14 Days After Application, DIGSA
[5] = ECHCG: barnyardgrass (Echinochloa crus-galli), read-out: Visual Growth Reduction (%) 14 Days After Application, ECHCG
[6] = ORYSA: rice (Oryza sativa), read-out: Visual Growth Reduction (%) 14 Days After Application, ORYSA
[7] = SETFA: giant foxtail (Setaria faberi), read-out: Visual Growth Reduction (%) 14 Days After Application, SETFA
[8] = SORVU: grain sorghum (Sorghum vulgare), read-out: Visual Growth Reduction (%) 14 Days After Application, SORVU
[9] = TRZSS (wheat, Triticum aestivum), read-out: Visual Growth Reduction (%) 14 Days After Application, TRZSS
[10] = ZEAMX: maize, corn (Zea mays), read-out: Visual Growth Reduction (%) 14 Days After Application, ZEAMX
[11] = ABUTH: velvetleaf (Abutilon theophrasti), read-out: Visual Growth Reduction (%) 14 Days After Application ABUTH
[12] = AMARE: redroot pigweed (Amaranthus retroflexus), read-out: Visual Growth Reduction (%) 14 Days After Application AMARE
[13] = BRSNN: oilseed-rape, canola (Brassica napus), read-out: Visual Growth Reduction (%) 14 Days After Application BRSNN
[14] = CHEAL: lambsquarters (Chenopodium album), read-out: Visual Growth Reduction (%) 14 Days After Application CHEAL
[15] = EPHHL: wild poinsettia (Euphorbia heterophylla), read-out: Visual Growth Reduction (%) 14 Days After Application EPHHL
[16] = HELAN: sunflower (Helianthus annuus), read-out: Visual Growth Reduction (%) 14 Days After Application HELAN
[17] = VIOTR: wild pansy (Viola tricolor), read-out: Visual Growth Reduction (%) 14 Days After Application VIOTR

Structure (SMILES) | pest or weed control at 70 g/ha [1, 3] | pest or weed control at 140 g/ha [1, 3] | pest or weed control at 70 g/ha [1, 4] | pest or weed control at 140 g/ha [1, 4] | pest or weed control at 70 g/ha [1, 5] | pest or weed control at 140 g/ha [1, 5] | pest or weed control at 70 g/ha [1, 6] | pest or weed control at 140 g/ha [1, 6] | pest or weed control at 70 g/ha [1, 7] | pest or weed control at 140 g/ha [1, 7] | pest or weed control at 70 g/ha [1, 8] | pest or weed control at 140 g/ha [1, 8] | pest or weed control at 70 g/ha [1, 9] | pest or weed control at 140 g/ha [1, 9] | pest or weed control at 70 g/ha [1, 10] | pest or weed control at 140 g/ha [1, 10] | pest or weed control at 70 g/ha [2, 11] | pest or weed control at 140 g/ha [2, 11] | pest or weed control at 70 g/ha [2, 12] | pest or weed control at 140 g/ha [2, 12] | further results
COC(=O)c1nc(-c2cc(F)c(C(F)(F)F)cc2F)c(F)c(N)c1Cl [Compound 144] | 85 to 94% | 95 to 100% | 60 to 74% | 75 to 84% | 45 to 59% | 75 to 84% | 0 to 29% | 0 to 29% | 60 to 74% | 75 to 84% | 75 to 84% | 85 to 94% | 60 to 74% | 75 to 84% | 60 to 74% | 75 to 84% | 85 to 94% | 95 to 100% | 95 to 100% | 95 to 100% | pest or weed control at 70 g/ha [2, 13]: 85 to 94%; pest or weed control at 140 g/ha [2, 13]: 95 to 100%; pest or weed control at 70 g/ha [2, 14]: 85 to 94%; pest or weed control at 140 g/ha [2, 14]: 95 to 100%; pest or weed control at 70 g/ha [2, 15]: 75 to 84%; pest or weed control at 140 g/ha [2, 15]: 85 to 94%; pest or weed control at 70 g/ha [2, 16]: 85 to 94%; pest or weed control at 140 g/ha [2, 16]: 95 to 100%; pest or weed control at 70 g/ha [2, 17]: 75 to 84%; pest or weed control at 140 g/ha [2, 17]: 85 to 94%; melting point: 124 to 126 °C
COC(=O)c1nc(-c2cc(F)c(C(F)(F)F)cc2F)nc(N)c1OC [Compound 148, methyl 6-amino-2-(2,5-difluoro-4-(trifluoromethyl)phenyl)-5-methoxypyrimidine-4-carboxylate] | 60 to 74% | 75 to 84% | 0 to 29% | 0 to 29% | 0 to 29% | 0 to 29% | 0 to 29% | 30 to 44% | 0 to 29% | 0 to 29% | 0 to 29% | 0 to 29% | 30 to 44% | 60 to 74% | 0 to 29% | 30 to 44% | 75 to 84% | 75 to 84% | 0 to 29% | 0 to 29% | pest or weed control at 70 g/ha [2, 13]: 45 to 59%; pest or weed control at 140 g/ha [2, 13]: 60 to 74%; pest or weed control at 70 g/ha [2, 14]: 85 to 94%; pest or weed control at 140 g/ha [2, 14]: 95 to 100%; pest or weed control at 70 g/ha [2, 15]: 85 to 94%; pest or weed control at 140 g/ha [2, 15]: 75 to 84%; pest or weed control at 70 g/ha [2, 16]: 45 to 59%; pest or weed control at 140 g/ha [2, 16]: 60 to 74%; pest or weed control at 70 g/ha [2, 17]: 45 to 59%; pest or weed control at 140 g/ha [2, 17]: 60 to 74%; melting point: 96 to 98 °C
